According to patent US20260223859A1, “PLANT DISEASE CONTROL COMPOSITION COMPRISING CULTURE BROTH OF STREPTOMYCES SP. JCK-6141 STRAIN OR EXTRACT OF CULTURE BROTH OF STRAIN, PREPARATION METHOD THEREFOR AND PLANT DISEASE CONTROL METHOD” (priority 2020, published 2026):
≈ marks a conversion by molar mass, not a printed value.

Columns and labels:
Curvularia lunata = assay: microbe, parasite or virus in culture; type: cell-based; conditions: 24 hours at 25° C., read-out: MIC, F61
Botryoshpaeria dothidea = assay: organism not typed; type: cell-based; conditions: 24 hours at 25° C.; read-out: MIC, F61
Fusarium graminearum = assay: microbe, parasite or virus in culture; type: cell-based; conditions: 24 h, read-out: MIC, F61 (μg/ml)
Magnapothe oryzae = assay: organism not typed; type: cell-based; conditions: 24 h, read-out: MIC, F61 (μg/ml)
[1] = tested on: Fusarium oxysporum f. sp. raphani; assay: microbe, parasite or virus in culture; type: cell-based; conditions: 24 hours at 25° C., read-out: MIC, F61
Phytophthora cambivora = assay: microbe, parasite or virus in culture; type: cell-based; conditions: 24 hours at 25° C., read-out: MIC, F61
Sclerotinia homoeocarpa = assay: microbe, parasite or virus in culture; type: cell-based; conditions: Clarireedia homoeocarpa; 24 hours at 25° C.; read-out: MIC, F61
Endothia parasitica = assay: microbe, parasite or virus in culture; type: cell-based; conditions: Cryphonectria parasitica; 24 hours at 25° C.; read-out: MIC, F61
Gaeumannomyces graminis = assay: microbe, parasite or virus in culture; type: cell-based; conditions: 24 hours at 25° C., read-out: MIC, F61
Valsa ceratosperma = assay: microbe, parasite or virus in culture; type: cell-based; conditions: Cytospora ceratosperma; 24 hours at 25° C.; read-out: MIC, F61
[2] = tested on: Fusarium oxysporum f. sp. cucumerinum; assay: microbe, parasite or virus in culture; type: cell-based; conditions: 24 hours at 25° C., read-out: MIC, F61
Phytophthora cinnamomi = assay: microbe, parasite or virus in culture; type: cell-based; conditions: 24 hours at 25° C., read-out: MIC, F61
Phythium ultimum = assay: organism not typed; type: cell-based; conditions: 24 hours at 25° C.; read-out: MIC, F61
Rhizoctonia solani [3] = assay: microbe, parasite or virus in culture; type: cell-based; conditions: 24 hours at 25° C., read-out: MIC, F61
Colletotrichum horii = assay: microbe, parasite or virus in culture; type: cell-based; conditions: 24 hours at 25° C., read-out: MIC, F61
Botryritis cinerea = assay: organism not typed; type: cell-based; conditions: 24 hours at 25° C.; read-out: MIC, F61
Magnaporthiopsis poae = assay: microbe, parasite or virus in culture; type: cell-based; conditions: 24 hours at 25° C., read-out: MIC, F61
Phytophthora cactorum = assay: microbe, parasite or virus in culture; type: cell-based; conditions: 24 hours at 25° C., read-out: MIC, F61
Puccinia recondite = assay: In vivo control of wheat leaf rust; conditions: wheat cultivar Eunpa, 7 days after inoculation
Rhizoctonia solani [4] = assay: In vivo control of rice sheath blight (RSB); conditions: rice cultivar Nakdong
Procedure: The control efficacy of Streptomyces sp. JCK-6141 strain against rice sheath blight (RSB) was examined in vivo. As an experimental plant, the rice cultivar Nakdong (Oryza sativa L.) was used.
One day before pathogen inoculation, the Nakdong rice plants were treated by soil drenching with 10 ml of each of the 3-fold and 9-fold dilutions of the Streptomyces sp. JCK-6141 strain culture in distilled water. After putting an appropriate amount of Nakdong rice bran treated with the dilutions was put into a 1-L culture bottle and sterilized, followed by evenly inoculating finely ground mycelial mass of cultured Rhizoctonia solani into the pots where the rice plants had been grown. After inoculation, incubation was carried out for 3 days in a humid chamber (25° C.) and then for 4 days in an incubator with a relative humidity of 80%. Examination was made of the onset of the disease. As a control, the synthetic chemical fungicide Flutolanil was used at 20 μg/ml or 50 μg/ml concentration.

SMILES: CCCCCC[C@@]1(OC(=O)CCC(=O)O)CC[C@]2(CC[C@H](C)[C@@H](C/C=C(C)/C=C/[C@H](O)[C@@H](C)/C=C/C(=O)O)O2)O[C@H]1/C=C/C(C)=C/C(=O)O [F61, reveromycin E]
- MIC (Curvularia lunata): 0.78 µg/mL (≈ 1.13 µM)
- MIC (Botryoshpaeria dothidea): 0.098 µg/mL (≈ 0.142 µM)
- MIC (Fusarium graminearum): 0.195 µg/mL (≈ 0.283 µM)
- MIC (Magnapothe oryzae): 0.78 µg/mL (≈ 1.13 µM)
- MIC [1]: 1.56 µg/mL (≈ 2.26 µM)
- MIC (Phytophthora cambivora): 0.195 µg/mL (≈ 0.283 µM)
- MIC (Sclerotinia homoeocarpa): 0.195 µg/mL (≈ 0.283 µM)
- MIC (Endothia parasitica): 1.56 µg/mL (≈ 2.26 µM)
- MIC (Gaeumannomyces graminis): 3.12 µg/mL (≈ 4.54 µM)
- MIC (Valsa ceratosperma): 0.78 µg/mL (≈ 1.13 µM)
- MIC [2]: 1.56 µg/mL (≈ 2.26 µM)
- MIC (Phytophthora cinnamomi): 0.39 µg/mL (≈ 0.566 µM)
- MIC (Phythium ultimum): 1.56 µg/mL (≈ 2.26 µM)
- MIC (Rhizoctonia solani [3]): 1.56 µg/mL (≈ 2.26 µM)
- MIC (Colletotrichum horii): 0.049 µg/mL (≈ 0.0711 µM)
- MIC (Botryritis cinerea): 1.56 µg/mL (≈ 2.26 µM)
- MIC (Magnaporthiopsis poae): 0.0244 µg/mL (≈ 0.0354 µM)
- MIC (Phytophthora cactorum): 0.195 µg/mL (≈ 0.283 µM)

SMILES: CC(C)Oc1cccc(NC(=O)c2ccccc2C(F)(F)F)c1 [Flutolanil]
- Wheat leaf rust control (%) (Puccinia recondite; 20 μg/ml): 73.3 ± 6.7 b %
- Wheat leaf rust control (%) (Puccinia recondite; 50 μg/ml): 100.0 ± 0.0 a %
- RSB Control (%) (Rhizoctonia solani [4]; 20 μg/ml): 100.0 ± 0.0 a %
- RSB Control (%) (Rhizoctonia solani [4]; 50 μg/ml): 100.0 ± 0.0 a %
